Measurements taken from paper PMC5676521 (Chemical Science, 2017).

Target: PRMT7 (TbPRMT7) (Trypanosoma brucei, UniProt Q582G4)
Sequence (Q582G4 whole entry): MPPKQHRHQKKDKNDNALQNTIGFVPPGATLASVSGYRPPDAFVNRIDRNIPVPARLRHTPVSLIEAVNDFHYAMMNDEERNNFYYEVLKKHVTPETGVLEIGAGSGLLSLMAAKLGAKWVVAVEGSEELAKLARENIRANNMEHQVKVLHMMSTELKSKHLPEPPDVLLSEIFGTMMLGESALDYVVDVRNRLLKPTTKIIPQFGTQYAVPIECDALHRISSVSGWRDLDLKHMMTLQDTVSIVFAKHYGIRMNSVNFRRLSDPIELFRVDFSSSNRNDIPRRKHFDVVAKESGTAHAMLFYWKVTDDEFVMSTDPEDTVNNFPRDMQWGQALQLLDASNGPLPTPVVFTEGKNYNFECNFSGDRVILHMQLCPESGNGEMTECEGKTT

Km: 15.3 ± 0.7 µM
Structure (SMILES): C[S+](CC[C@H](N)C(=O)O)C[C@H]1O[C@@H](n2nnc3c(N)ncnc32)[C@H](O)[C@@H]1O (stereo partly shown) [8-aza-SAM]
